From patent US20240197869A1, “HYPERACTIVATORS OF MAMMALIAN DENDRITIC CELLS” (Corner Therapeutics, Inc., priority 2021, published 2024)
“Also recorded” adds a separate entry of the source. Read-outs that look alike come from different tables or passages of the source.

Legend:
[1] = system: canine peripheral blood mononuclear cells (PBMCs); experiment: IL-1β secretion by canine PBMCs (ELISA); format: cell-based; details: lipid 82.5 μM combined with R848 1 μg/mL, 2 days
Experimental: Isolation of PBMCs from Whole Blood. PBMCs were isolated from whole blood using density gradient centrifugation with Ficoll-Paque PLUS (Cytivia). Whole blood was diluted 1:1 with PBS, layered on top of Ficoll-Paque PLUS and centrifuged at 1000×g for 30 minutes at room temperature. PBMCs were collected, washed twice in PBS, and incubated with Ack lysis buffer (Lonza) to remove any remaining red blood cells.
Cell Culture and Stimulation. […] Cells were plated at 1×10^5 (canine cells) or 1×10^6 (human cells) per well in 96-well flat bottom tissue culture plates. Lyophilized Vaccigrade R848 (Invivogen) was reconstituted and diluted according to manufacturer's recommendations and added to cells at a final concentration of 1 μg/mL.
Quantification of Cytokine Secretion. IL-1β secretion from human PBMCs was assessed using one of the following kits: ELISA MAX Deluxe Set Human IL-1β kit (Biolegend), Invitrogen Human IL-1β kit, or the Lumit™ Human IL-1β Immunoassay (Promega). IFNγ secretion from human PBMCs was assessed using the ELISA MAX Deluxe Set Human IFNγ (Biolegend) and TNFα secretion from human PBMCs was assessed using the Human TNFα Uncoated ELISA kit (Invitrogen). […] IL-1β secretion from canine PBMCs was assessed using the Canine IL-1β/IL-1F2 DuoSet ELISA (R&D) according to manufacturer's instructions with the following modifications: i) total sample+buffer volume for incubation was reduced from 100 μL to 50 μL; ii) sample incubation was completed overnight at 4° C. on an orbital shaker. For all ELISAs, absorbance was measured at 450 nm, with a 570 nm correction, using a Spectramax M5e plate reader (Molecular Devices). For Lumit™ assays, luminescence was measured on all wavelengths using a Spectramax M5e plate reader (Molecular Devices) with an integration time of 500 ms. […]

[2] = system: human monocyte-derived dendritic cells (moDCs); experiment: Lipid titration: IL-1β secretion by LPS-activated human moDCs; format: cell-based
Experimental: (§1) Quantification of IL-1beta Secretion. IL-1beta secretion was assessed using the ELISA MAX Deluxe Set Human IL-1beta kit (Biolegend). ELISAs were performed according to manufacturer's instructions with the following modifications: i) total sample volume for incubation was reduced from […] the top standard was prepared at […], with two-fold dilutions to […]; and iii) sample incubation was completed overnight at 4 C on an orbital shaker. […] To determine IL-1beta concentration in supernatants, sample IL-1beta concentrations were interpolated using a standard curve via 4PL analysis on GraphPad Prism 9 (GraphPad Software). The interpolated results of samples were then adjusted for any dilutions made to the supernatant.

[3] = PAMP screen: viability of human moDCs with PRR agonist and 22:0 Lyso PC; format: cell-based; details: human, human monocyte-derived dendritic cells (moDCs), No PAMP, 20 μM 22:0 Lyso PC alone, human moDCs, read-out: Relative Viability (%) ± SD
Experimental: Pathogen-Associated Molecular Pattern (PAMP) Screen. Innate immune signaling pathway agonists were purchased from Invivogen. Lyophilized stocks were reconstituted and stored according to manufacturer's instructions and at recommended concentrations. […] Innate immune signaling agonists were diluted in R10 media to the manufacturer's recommended working concentration and then added onto cells. 22:0 Lyso PC was then reconstituted from a lyophilized stock in R10 and then further diluted. The lipid was added onto cells at a final concentration of 20 μM. Cells were incubated for 2 days, then cultures were collected for endpoint analyses.
Quantification of Cell Viability.

[4] = system: murine, FLT3L-differentiated DC; experiment: Antigen uptake and presentation assay; format: cell-based, mouse
Experimental: Antigen uptake and presentation assay. To examine antigen uptake and the endocytic ability of BMDCs, pHrodo™ Red Dextran 10,000 MW was used (ThermoFisher). Briefly, FLT3L-derived BMDCs previously cultured with media alone, or treated for 24 hours with R848 alone or in combination with 22:0 Lyso PC, were incubated with pHrodo™ Red Dextran (40 ug/ml) for 45 minutes at 37° C., or at 4° C. (as a control for surface binding of the antigen). BMDCs were then washed and stained with Live/Dead Fixable Violet dye (ThermoFisher) to distinguish living cells from dead cells. Cells were then fixed with BD fixation solution and resuspended in MACS buffer. Red (APC) fluorescence of live cells was measured by flow cytometry. Fluorescence values of BMDCs incubated at 37° C. were reported as Mean Fluorescence Intensity (MFI) of pHrodo™ Red Dextran associated cells as normalized to MFI of pHrodo™ Red Dextran associated cells incubated at 4° C. To measure the efficiency of OVA peptide presentation on MHC-I, FLT3L-BMDCs were treated as described above and incubated with Endofit-OVA protein (0.5 mg/ml) for 1 hour at 37° C. […] The percentage of cells associated with the OVA peptide on MHC-I was calculated by flow cytometry. Data were acquired on a Symphony A3 flow cytometer (Becton-Dickenson) and analyzed with FlowJo software (Becton-Dickenson). […]

[5] = system: human monocyte-derived dendritic cells (moDCs); experiment: DAMP screen: IL-1β secretion by LPS-activated human moDCs (ELISA); format: cell-based
Experimental: Danger-Associated Molecular Pattern (DAMP) Screen.
as §1

CCCCCCCCCCCCCCCCCCCCCC(=O)OC[C@@H](O)COP(=O)([O-])OCC[N+](C)(C)C [22:0 LYSO PC, 1-behenoyl-2-hydroxy-sn-glycero-3-phosphocholine]
IL-1β secretion (in words) [1]: comparable or higher levels of IL-1β compared to every other stimuli tested; also recorded: hyperactivated to a greater extent
concentration lower than PGPC for comparable IL-1beta secretion ([2]; 10.3 μM 22:0 Lyso PC vs 82.5 μM PGPC, + LPS): ~8 times
IL-1beta secretion (in words) ([2]; 10.3 μM lipid + LPS): retained its ability to induce IL-1beta secretion
IL-1β secretion ([2]; 10.3 μM lipid + LPS 1 μg/mL, 2 days, Table 1-5): 224.8 pg/mL
IL-1beta secretion (in words) ([2]; 20.6 μM lipid + LPS): increased IL-1beta secretion
IL-1β secretion ([2]; 20.6 μM lipid + LPS, human moDCs, 4 donors, mean (SD in wrapped line below)): 512.6 pg/mL
lipid activity index, ranking in words ([2]; lipid 1.3-82.5 μM + LPS): most potent activity by far
Activity Units (AU) ± SD (lipid activity index) ([2]; reciprocal of lowest concentration giving IL-1β two-fold over LPS x highest IL-1β signal, lipid 1.3-82.5 μM + LPS): 370.00 ± 376.36 AU
viability at 2 days, 20 μM ([3]; Table 1-7, 10 donors): 120%
viability at 2 days, 20 μM ([3]; Table 1-8): 120%
OVA antigen processing and cross-presentation on MHC-I (in words) ([4]; R848 + lipid): did not interfere with these functions
antigen uptake (Red pHrodo dextran) (in words) ([4]; R848 with vs without lipid, 24 h): does not compromise the antigen uptake capacity of DCs
IL-1β secretion ([5]; 41.3 μM lipid + LPS 1 μg/mL, 2 days, Table 1-2): 1904.2 pg/mL
IL-1β secretion ([5]; 82.5 μM lipid + LPS, selected lipids, Table 1-3 (repeats Table 1-1)): 2130.9 pg/mL
